Experimental data published in paper PMC3995681, “Structural, Kinetic and Proteomic Characterization of Acetyl Phosphate-Dependent Bacterial Protein Acetylation” (PLoS ONE, 2014).

Columns and labels:
[1] = target: T1, GapA (glyceraldehyde-3-phosphate dehydrogenase) (Escherichia coli, UniProt P0A9B2); experiment: X-ray crystallography; conditions: NAD+-binding site, part of the molecules in the asymmetric unit
T1 construct: full ORF, N-terminal His6 tag plus TDPALRA spacer (ASKA clone, pCA24N), expressed in E. coli BL21(DE3); tetramer

[2] = target: T1, GapA (glyceraldehyde-3-phosphate dehydrogenase); experiment: X-ray crystallography, crystal soak ( […] sec); assay type: binding; conditions: covalent; acetylation of K46, K249, K257, K116; pH 7.5
[3] = target: T2, LpdA (dihydrolipoyl dehydrogenase) (Escherichia coli, UniProt P0A9P0); experiment: in vitro acetylation, anti-acetyllysine Western blot and MS1 Filtering; assay type: biochemical; conditions: covalent; non-enzymatic lysine acetylation, non-saturating; 5-20 mM acP, 10 mM MgCl2, pH 7.3, 37°C
T2 construct: full ORF, N-terminal His6 tag plus TDPALRA spacer (ASKA clone, pCA24N), expressed in E. coli BL21(DE3)

[4] = target: T3, TpiA (triosephosphate isomerase) (Escherichia coli, UniProt P0A858); experiment: X-ray crystallography, crystal soak ( […] sec); assay type: binding; conditions: pH 6.5; active site near K11; non-covalent (K11 not acetylated)
T3 construct: full ORF, N-terminal His6 tag plus TDPALRA spacer (ASKA clone, pCA24N), expressed in E. coli BL21(DE3)

[5] = target: T4, RNAP sigma70 holoenzyme (Escherichia coli, UniProt P00579+P0A7Z4+P0A8V2); experiment: in vitro acetylation, anti-acetyllysine Western blot and MS1 Filtering; assay type: biochemical; conditions: covalent; acetylation of RpoA K297, RpoB K1065, RpoD K493 and K593; 10 mM acP, 30 min, 10 mM MgCl2
T4 construct: gene rpoA; with DNA-directed RNA polymerase subunit beta'; DNA-directed RNA polymerase subunit omega
T4 sequence (P0A7Z4 whole entry): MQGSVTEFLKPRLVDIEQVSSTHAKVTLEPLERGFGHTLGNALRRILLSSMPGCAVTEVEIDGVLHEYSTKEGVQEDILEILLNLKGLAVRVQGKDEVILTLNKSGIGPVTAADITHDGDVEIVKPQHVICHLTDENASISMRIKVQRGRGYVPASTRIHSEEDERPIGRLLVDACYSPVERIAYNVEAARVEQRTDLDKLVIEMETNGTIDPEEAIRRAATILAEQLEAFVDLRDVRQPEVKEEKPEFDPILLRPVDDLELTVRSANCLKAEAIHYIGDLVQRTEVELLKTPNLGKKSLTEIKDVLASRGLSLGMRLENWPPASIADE
T4 sequence (P0A8V2 whole entry): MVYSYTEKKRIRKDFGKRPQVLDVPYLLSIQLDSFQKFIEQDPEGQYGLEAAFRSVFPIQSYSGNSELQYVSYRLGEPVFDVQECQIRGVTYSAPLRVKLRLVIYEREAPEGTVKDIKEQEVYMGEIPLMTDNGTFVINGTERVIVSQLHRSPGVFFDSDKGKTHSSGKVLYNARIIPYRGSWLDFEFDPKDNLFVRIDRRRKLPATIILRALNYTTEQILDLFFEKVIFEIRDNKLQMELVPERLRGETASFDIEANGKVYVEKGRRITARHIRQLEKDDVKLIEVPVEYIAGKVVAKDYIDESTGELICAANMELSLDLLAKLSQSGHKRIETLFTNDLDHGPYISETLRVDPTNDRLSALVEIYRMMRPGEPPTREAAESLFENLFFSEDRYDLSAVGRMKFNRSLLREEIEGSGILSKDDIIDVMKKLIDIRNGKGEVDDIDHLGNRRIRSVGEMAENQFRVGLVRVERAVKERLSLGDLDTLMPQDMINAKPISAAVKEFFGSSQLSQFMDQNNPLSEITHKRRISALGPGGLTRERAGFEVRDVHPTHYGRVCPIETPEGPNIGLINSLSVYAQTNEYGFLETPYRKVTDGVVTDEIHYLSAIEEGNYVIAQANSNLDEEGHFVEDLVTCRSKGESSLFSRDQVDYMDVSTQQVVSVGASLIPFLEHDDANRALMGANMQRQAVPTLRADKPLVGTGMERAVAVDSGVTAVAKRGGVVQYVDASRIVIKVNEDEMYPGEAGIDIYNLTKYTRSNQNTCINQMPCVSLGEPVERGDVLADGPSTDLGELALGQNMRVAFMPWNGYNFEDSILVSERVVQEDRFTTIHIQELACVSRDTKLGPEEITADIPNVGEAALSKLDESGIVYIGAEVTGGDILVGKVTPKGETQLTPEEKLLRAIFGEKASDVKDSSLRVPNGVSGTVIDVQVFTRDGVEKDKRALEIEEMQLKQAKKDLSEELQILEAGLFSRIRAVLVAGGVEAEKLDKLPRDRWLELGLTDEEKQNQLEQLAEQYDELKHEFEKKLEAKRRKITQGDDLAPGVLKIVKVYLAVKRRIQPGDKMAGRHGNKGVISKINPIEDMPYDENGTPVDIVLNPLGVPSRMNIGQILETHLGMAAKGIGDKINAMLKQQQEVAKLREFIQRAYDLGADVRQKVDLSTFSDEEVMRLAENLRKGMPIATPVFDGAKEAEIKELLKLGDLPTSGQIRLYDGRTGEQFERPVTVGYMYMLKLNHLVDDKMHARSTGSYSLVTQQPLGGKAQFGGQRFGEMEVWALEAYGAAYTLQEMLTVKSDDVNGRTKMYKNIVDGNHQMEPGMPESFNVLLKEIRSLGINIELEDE
T4 sequence (P00579 whole entry): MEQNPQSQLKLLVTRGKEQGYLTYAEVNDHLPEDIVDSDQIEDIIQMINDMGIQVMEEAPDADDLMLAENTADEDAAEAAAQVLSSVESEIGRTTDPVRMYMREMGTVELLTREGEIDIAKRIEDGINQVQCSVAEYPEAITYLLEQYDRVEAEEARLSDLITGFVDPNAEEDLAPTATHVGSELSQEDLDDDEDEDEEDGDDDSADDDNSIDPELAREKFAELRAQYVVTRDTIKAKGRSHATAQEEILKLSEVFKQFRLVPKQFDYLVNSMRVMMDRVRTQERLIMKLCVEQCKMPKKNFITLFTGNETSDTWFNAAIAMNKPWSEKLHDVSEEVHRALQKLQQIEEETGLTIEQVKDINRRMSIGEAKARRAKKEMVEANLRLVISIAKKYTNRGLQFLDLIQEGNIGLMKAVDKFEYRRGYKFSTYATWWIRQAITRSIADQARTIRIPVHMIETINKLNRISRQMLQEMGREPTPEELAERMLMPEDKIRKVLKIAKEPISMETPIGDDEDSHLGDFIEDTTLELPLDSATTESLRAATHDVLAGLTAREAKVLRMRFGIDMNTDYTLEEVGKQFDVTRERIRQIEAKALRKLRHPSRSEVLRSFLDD
T4 sequence (P0A8T7 whole entry partner): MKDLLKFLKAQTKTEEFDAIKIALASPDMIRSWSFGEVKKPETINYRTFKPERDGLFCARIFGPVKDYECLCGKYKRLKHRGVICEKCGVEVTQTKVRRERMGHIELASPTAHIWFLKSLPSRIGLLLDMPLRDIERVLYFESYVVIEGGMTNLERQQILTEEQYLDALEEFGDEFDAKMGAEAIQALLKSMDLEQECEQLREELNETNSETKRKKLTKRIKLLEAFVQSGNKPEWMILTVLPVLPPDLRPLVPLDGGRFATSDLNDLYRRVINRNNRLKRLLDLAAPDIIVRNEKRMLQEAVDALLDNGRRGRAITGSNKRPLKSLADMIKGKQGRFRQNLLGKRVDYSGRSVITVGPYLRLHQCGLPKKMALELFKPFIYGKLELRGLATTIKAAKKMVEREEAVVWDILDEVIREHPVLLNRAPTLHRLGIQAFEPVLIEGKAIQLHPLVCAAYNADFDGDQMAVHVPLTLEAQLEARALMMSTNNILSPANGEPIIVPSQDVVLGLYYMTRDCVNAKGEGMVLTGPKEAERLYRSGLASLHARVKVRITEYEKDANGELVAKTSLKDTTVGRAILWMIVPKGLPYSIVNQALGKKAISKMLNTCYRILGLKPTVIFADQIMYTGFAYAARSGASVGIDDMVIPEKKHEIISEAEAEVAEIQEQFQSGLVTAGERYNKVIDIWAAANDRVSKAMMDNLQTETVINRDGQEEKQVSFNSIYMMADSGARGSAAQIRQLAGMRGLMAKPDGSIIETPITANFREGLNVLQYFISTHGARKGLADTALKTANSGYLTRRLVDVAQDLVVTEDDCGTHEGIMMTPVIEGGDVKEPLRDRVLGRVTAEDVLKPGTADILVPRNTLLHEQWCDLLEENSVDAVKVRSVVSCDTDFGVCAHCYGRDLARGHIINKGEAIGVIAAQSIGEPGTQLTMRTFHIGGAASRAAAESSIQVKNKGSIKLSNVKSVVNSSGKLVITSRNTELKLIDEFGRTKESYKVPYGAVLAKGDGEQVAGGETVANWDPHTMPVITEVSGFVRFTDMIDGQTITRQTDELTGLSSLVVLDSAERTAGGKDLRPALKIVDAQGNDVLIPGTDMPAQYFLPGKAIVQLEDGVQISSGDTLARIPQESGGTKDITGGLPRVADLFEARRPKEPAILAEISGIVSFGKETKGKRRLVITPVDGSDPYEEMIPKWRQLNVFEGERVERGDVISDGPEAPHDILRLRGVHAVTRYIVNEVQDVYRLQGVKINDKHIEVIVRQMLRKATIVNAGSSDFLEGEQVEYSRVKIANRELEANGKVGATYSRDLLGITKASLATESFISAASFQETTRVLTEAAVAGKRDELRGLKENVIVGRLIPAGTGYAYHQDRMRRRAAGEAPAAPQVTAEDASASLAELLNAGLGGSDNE
T4 sequence (P0A800 2-91 partner): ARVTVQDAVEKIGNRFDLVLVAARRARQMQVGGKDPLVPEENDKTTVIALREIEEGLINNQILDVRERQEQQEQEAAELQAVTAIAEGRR

T1 sequence (P0A9B2 whole entry): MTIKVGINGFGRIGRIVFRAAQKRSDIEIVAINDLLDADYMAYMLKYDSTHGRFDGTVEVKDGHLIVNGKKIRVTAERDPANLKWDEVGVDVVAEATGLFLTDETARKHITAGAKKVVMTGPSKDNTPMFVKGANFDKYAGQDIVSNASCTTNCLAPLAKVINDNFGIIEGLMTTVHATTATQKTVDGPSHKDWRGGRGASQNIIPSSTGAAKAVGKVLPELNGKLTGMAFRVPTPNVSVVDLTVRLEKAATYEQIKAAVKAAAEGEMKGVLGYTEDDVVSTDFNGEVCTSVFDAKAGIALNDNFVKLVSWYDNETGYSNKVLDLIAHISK
T3 sequence (P0A858 whole entry): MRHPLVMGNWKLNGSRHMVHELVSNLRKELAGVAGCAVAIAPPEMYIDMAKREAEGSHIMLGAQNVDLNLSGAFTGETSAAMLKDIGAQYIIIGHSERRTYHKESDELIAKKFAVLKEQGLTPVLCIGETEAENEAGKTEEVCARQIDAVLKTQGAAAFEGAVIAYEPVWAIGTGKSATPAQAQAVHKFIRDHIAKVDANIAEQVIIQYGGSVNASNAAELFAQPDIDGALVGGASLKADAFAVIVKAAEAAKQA
T2 sequence (P0A9P0 whole entry): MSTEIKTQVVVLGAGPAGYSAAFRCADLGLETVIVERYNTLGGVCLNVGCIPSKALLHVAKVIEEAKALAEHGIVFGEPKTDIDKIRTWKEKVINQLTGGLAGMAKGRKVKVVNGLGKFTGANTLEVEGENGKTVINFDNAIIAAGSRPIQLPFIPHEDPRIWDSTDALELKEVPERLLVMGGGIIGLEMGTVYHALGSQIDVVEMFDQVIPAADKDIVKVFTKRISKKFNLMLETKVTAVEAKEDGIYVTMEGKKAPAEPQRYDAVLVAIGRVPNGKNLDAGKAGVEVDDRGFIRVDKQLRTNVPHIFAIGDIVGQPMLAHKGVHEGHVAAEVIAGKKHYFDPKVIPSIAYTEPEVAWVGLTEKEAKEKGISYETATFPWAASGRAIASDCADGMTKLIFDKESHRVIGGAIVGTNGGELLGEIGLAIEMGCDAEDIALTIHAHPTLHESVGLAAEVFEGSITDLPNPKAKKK

Compound: NC(=O)c1ccc[n+]([C@@H]2O[C@H](COP(=O)(O)OP(=O)(O)OC[C@H]3O[C@@H](n4cnc5c(N)ncnc54)[C@H](O)[C@@H]3O)[C@@H](O)[C@H]2O)c1 [NAD^+]
- X-ray crystallography [1]: had either NAD^+ or pyrophosphate bound in the NAD^+-binding site

Compound: CC(=O)OP(=O)(O)O [acP]
- X-ray crystallography, crystal soak (<30 sec) [2]: acP-dependent acetylation had already occurred on four residues (i.e., K46, K249, K257, and K116)
- in vitro acetylation, anti-acetyllysine Western blot and MS1 Filtering [3]: when incubated with acP, purified LpdA became acetylated in a dose- and time-dependent manner
- X-ray crystallography, crystal soak (<30 sec) [4]: The structures showed that acP bound near K11, where the substrate DHAP is seen to bind
- in vitro acetylation, anti-acetyllysine Western blot and MS1 Filtering [5]: significant relative increases in acetylation were observed for K297 of RpoA, for K1065 of RpoB

Compound: O=P(O)(O)OP(=O)(O)O [pyrophosphate]
- X-ray crystallography ([1]; source of ligand not told): had either NAD^+ or pyrophosphate bound in the NAD^+-binding site
